Reference: patent US12215085B2 (priority 2019, dated 2025)

Tested on: rats with beta-amyloid induced senile dementia
Experiment: Water maze test, beta-amyloid induced senile dementia rats
Type: in vivo, rat
Conditions: succinate; for orientation angle for reaching the platform / speed for reaching the platform / swimming path length for reaching the platform / time for reaching the platform: x ± s
[1] = Day 1, 0.7 mg/kg intragastric, 0.7 mg/kg
[2] = Day 1, 1.4 mg/kg intragastric, 1.4 mg/kg
[3] = Day 1, 2.8 mg/kg intragastric, 2.8 mg/kg
[4] = Day 2, 0.7 mg/kg intragastric, 0.7 mg/kg
[5] = Day 2, 1.4 mg/kg intragastric, 1.4 mg/kg
[6] = Day 2, 2.8 mg/kg intragastric, 2.8 mg/kg
[7] = Day 3, 0.7 mg/kg intragastric, 0.7 mg/kg
[8] = Day 3, 1.4 mg/kg intragastric, 1.4 mg/kg
[9] = Day 3, 2.8 mg/kg intragastric, 2.8 mg/kg
[10] = Day 4, 0.7 mg/kg intragastric, 0.7 mg/kg
[11] = Day 4, 1.4 mg/kg intragastric, 1.4 mg/kg
[12] = Day 4, 2.8 mg/kg intragastric, 2.8 mg/kg
[13] = Day 5, 0.7 mg/kg intragastric, 0.7 mg/kg
[14] = Day 5, 1.4 mg/kg intragastric, 1.4 mg/kg
[15] = Day 5, 2.8 mg/kg intragastric, 2.8 mg/kg
[16] = Day 6, 0.7 mg/kg intragastric, 0.7 mg/kg
[17] = Day 6, 1.4 mg/kg intragastric, 1.4 mg/kg
[18] = Day 6, 2.8 mg/kg intragastric, 2.8 mg/kg

## Nc1c2c(nc3c1CCCC3)CCCC2.O=C(O)CCC(=O)O [Crystal Form K, 9-amino-1,2,3,4,5,6,7,8-octahydroacridine succinate]
[1]
  adopted strategy for reaching the platform (the peripheral type and the random type %): 95.24%
  orientation angle for reaching the platform: 72.32 ± 21.32 °
  speed for reaching the platform: 18.56 ± 4.91 cm/s
  swimming path length for reaching the platform: 1196.20 ± 260.35 cm
  time for reaching the platform: 70.00 ± 14.73 s
[2]
  adopted strategy for reaching the platform (the peripheral type and the random type %): 94.82%
  orientation angle for reaching the platform: 71.28 ± 13.47 °
  speed for reaching the platform: 18.24 ± 6.88 cm/s
  swimming path length for reaching the platform: 1151.50 ± 313.31 cm
  time for reaching the platform: 70.50 ± 14.60 s
[3]
  adopted strategy for reaching the platform (the peripheral type and the random type %): 93.17%
  orientation angle for reaching the platform: 68.37 ± 20.14 °
  speed for reaching the platform: 19.42 ± 5.93 cm/s
  swimming path length for reaching the platform: 1188.50 ± 273.99 cm
  time for reaching the platform: 66.90 ± 11.45 s
[4]
  adopted strategy for reaching the platform (the peripheral type and the random type %): 79.34%
  orientation angle for reaching the platform: 62.15 ± 19.37 °
  speed for reaching the platform: 19.44 ± 9.85 cm/s
  swimming path length for reaching the platform: 796.10 ± 179.65 cm
  time for reaching the platform: 48.50 ± 15.28 s
[5]
  adopted strategy for reaching the platform (the peripheral type and the random type %): 78.13%
  orientation angle for reaching the platform: 63.27 ± 10.38 °
  speed for reaching the platform: 20.42 ± 7.24 cm/s
  swimming path length for reaching the platform: 772.80 ± 229.71 cm
  time for reaching the platform: 51.60 ± 17.26 s
[6]
  adopted strategy for reaching the platform (the peripheral type and the random type %): 80.67%
  orientation angle for reaching the platform: 66.21 ± 18.35 °
  speed for reaching the platform: 20.89 ± 6.68 cm/s
  swimming path length for reaching the platform: 770.70 ± 248.67 cm
  time for reaching the platform: 50.40 ± 17.10 s
[7]
  adopted strategy for reaching the platform (the peripheral type and the random type %): 80.31%
  orientation angle for reaching the platform: 58.23 ± 27.90 °
  speed for reaching the platform: 19.76 ± 10.49 cm/s
  swimming path length for reaching the platform: 760.80 ± 277.08 cm
  time for reaching the platform: 41.80 ± 11.68 s
[8]
  adopted strategy for reaching the platform (the peripheral type and the random type %): 77.37%
  orientation angle for reaching the platform: 54.77 ± 18.42 °
  speed for reaching the platform: 20.07 ± 7.36 cm/s
  swimming path length for reaching the platform: 737.60 ± 223.46 cm
  time for reaching the platform: 53.40 ± 23.24 s
[9]
  adopted strategy for reaching the platform (the peripheral type and the random type %): 75.48%
  orientation angle for reaching the platform: 52.93 ± 17.44 °
  speed for reaching the platform: 20.00 ± 8.73 cm/s
  swimming path length for reaching the platform: 584.50 ± 181.92 cm
  time for reaching the platform: 40.50 ± 20.47 s
[10]
  adopted strategy for reaching the platform (the peripheral type and the random type %): 70.66%
  orientation angle for reaching the platform: 57.32 ± 31.22 °
  speed for reaching the platform: 22.17 ± 13.09 cm/s
  swimming path length for reaching the platform: 685.10 ± 319.17 cm
  time for reaching the platform: 38.10 ± 22.41 s
[11]
  adopted strategy for reaching the platform (the peripheral type and the random type %): 71.34%
  orientation angle for reaching the platform: 51.48 ± 11.38 °
  speed for reaching the platform: 20.53 ± 11.21 cm/s
  swimming path length for reaching the platform: 653.50 ± 321.17 cm
  time for reaching the platform: 36.00 ± 20.42 s
[12]
  adopted strategy for reaching the platform (the peripheral type and the random type %): 68.99%
  orientation angle for reaching the platform: 50.22 ± 18.92 °
  speed for reaching the platform: 21.48 ± 9.09 cm/s
  swimming path length for reaching the platform: 544.70 ± 179.35 cm
  time for reaching the platform: 37.00 ± 17.54 s
[13]
  adopted strategy for reaching the platform (the peripheral type and the random type %): 71.53%
  orientation angle for reaching the platform: 54.22 ± 28.34 °
  speed for reaching the platform: 21.30 ± 9.86 cm/s
  swimming path length for reaching the platform: 563.90 ± 154.71 cm
  time for reaching the platform: 36.20 ± 27.16 s
[14]
  adopted strategy for reaching the platform (the peripheral type and the random type %): 69.33%
  orientation angle for reaching the platform: 53.62 ± 17.88 °
  speed for reaching the platform: 22.73 ± 17.69 cm/s
  swimming path length for reaching the platform: 562.80 ± 280.10 cm
  time for reaching the platform: 33.50 ± 21.95 s
[15]
  adopted strategy for reaching the platform (the peripheral type and the random type %): 67.59%
  orientation angle for reaching the platform: 51.22 ± 20.11 °
  speed for reaching the platform: 21.90 ± 10.66 cm/s
  swimming path length for reaching the platform: 481.50 ± 203.96 cm
  time for reaching the platform: 30.10 ± 15.85 s
[16]
  adopted strategy for reaching the platform (the peripheral type and the random type %): 68.55%
  orientation angle for reaching the platform: 52.11 ± 22.00 °
  speed for reaching the platform: 21.55 ± 6.47 cm/s
  swimming path length for reaching the platform: 513.30 ± 194.29 cm
  time for reaching the platform: 35.90 ± 24.22 s
[17]
  adopted strategy for reaching the platform (the peripheral type and the random type %): 65.72%
  orientation angle for reaching the platform: 50.65 ± 18.77 °
  speed for reaching the platform: 20.62 ± 7.36 cm/s
  swimming path length for reaching the platform: 523.30 ± 182.50 cm
  time for reaching the platform: 38.90 ± 22.26 s
[18]
  adopted strategy for reaching the platform (the peripheral type and the random type %): 60.14%
  orientation angle for reaching the platform: 48.78 ± 16.83 °
  speed for reaching the platform: 18.52 ± 7.78 cm/s
  swimming path length for reaching the platform: 540.50 ± 166.77 cm
  time for reaching the platform: 36.10 ± 22.34 s
